The results in this text go back to ChEMBL document CHEMBL3232805, “Alkaloids from the roots of Stichoneuron caudatum and their acetylcholinesterase inhibitory activities” (J Nat Prod, 2014).

Some results are limits rather than exact numbers.

In the test the target is Acetylcholinesterase (Homo sapiens, UniProt P22303). In words: Inhibition of human AChE by spectrophotometry.
Chain of Acetylcholinesterase (P22303 whole entry): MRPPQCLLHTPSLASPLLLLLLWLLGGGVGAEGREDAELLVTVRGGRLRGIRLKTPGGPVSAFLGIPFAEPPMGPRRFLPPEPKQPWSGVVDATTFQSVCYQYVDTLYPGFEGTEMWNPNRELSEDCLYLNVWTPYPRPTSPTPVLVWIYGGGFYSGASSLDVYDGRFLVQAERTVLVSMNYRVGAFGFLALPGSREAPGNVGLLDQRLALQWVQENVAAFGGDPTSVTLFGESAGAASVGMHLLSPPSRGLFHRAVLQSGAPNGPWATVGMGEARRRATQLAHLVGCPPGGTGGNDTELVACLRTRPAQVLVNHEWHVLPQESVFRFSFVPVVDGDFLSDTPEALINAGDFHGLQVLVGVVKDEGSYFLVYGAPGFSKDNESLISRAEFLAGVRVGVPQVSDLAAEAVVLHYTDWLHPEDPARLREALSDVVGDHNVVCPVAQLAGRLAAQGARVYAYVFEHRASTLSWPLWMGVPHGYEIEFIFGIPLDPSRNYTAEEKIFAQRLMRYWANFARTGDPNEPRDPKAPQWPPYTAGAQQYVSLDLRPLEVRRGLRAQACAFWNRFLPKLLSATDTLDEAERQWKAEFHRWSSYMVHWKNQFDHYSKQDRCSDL
In the case of `CC[C@H]1[C@H](C[C@H](C)C(=O)OC)O[C@]23CC[C@@H]([C@@H]4C[C@H](C)C(=O)O4)N2CCCC[C@]13O`, the IC50 (usually the concentration at which inhibition is half-maximal) was more than 100 µM.

As for `CC[C@H]1[C@H](C[C@H](C)C(=O)OC)O[C@]23CC[C@@H]([C@@H]4C[C@H](C)C(=O)O4)N2CCCC[C@H]13`, the IC50 stood at 71.5 µM.

Compound `CC[C@H]1[C@H]2OC(=O)[C@](C)(O)[C@H]2[C@]23CC[C@@H]([C@@H]4C[C@@H](C)C(=O)O4)N2CCCC[C@@H]13` yielded an IC50 of 9.1 µM.

`CC[C@@H]1[C@H]2OC(=O)[C@](C)(O)[C@H]2[C@]23CC[C@@H]([C@@H]4C[C@@H](C)C(=O)O4)N2CCCC[C@@H]13` had an IC50 of more than 100 µM.

`CC[C@@H]1[C@H]2OC(=O)[C@@](C)(O)[C@H]2[C@]23CC[C@@H]([C@@H]4C[C@H](C)C(=O)O4)N2CCCC[C@H]13`: the IC50 stood at 68.8 µM.

`CC[C@H]1[C@H]2OC(=O)[C@@](C)(O)[C@H]2[C@]23CC[C@@H]([C@@H]4C[C@H](C)C(=O)O4)N2CCCC[C@H]13` gave an IC50 of more than 100 µM.

As to `CC[C@H]1[C@@H]2OC(=O)[C@@](C)(O)[C@@H]2[C@@]23CC[C@@H]([C@@H]4C[C@H](C)C(=O)O4)N2CCCC[C@H]13`, the IC50 turned out to be 17.1 µM.
